Data as given in patent publication US5731326A, “PDGF antagonists II” (ZymoGenetics, Inc., priority 1996, dated 1998).

Key:
Type in all cases: cell-based
PDGF = assay: SRE-luciferase antagonist assay, induction by PDGF; conditions: Swiss-3T3, SWISS3T3 cells, 5 hours, approximate
Text: (§1) Initial characterization of NNC92-0270 as a non-peptide PDGF antagonist was made possible through an SRE-Luciferase high through-put assay system which involves selection of substances that are able to block expression of a serum response element (SRE)-luciferase reporter gene expressed in SWISS3T3 cells. […] The degree of antagonist specificity can be determined by comparing the resultant signal for the three growth factors (PDGF, bFGF and EGF). […]
(§2) Following induction, luciferase activity was measured using a Promega luciferase assay kit (E1500; Promega Corp., Madison, Wis.) according to the assay kit protocol. […] The amount of luminescence (relative light units, RLU) was determined following a 1 second mix and a 1-3 integration of signal. Basal (uninduced) luciferase signal was subtracted from all measurements, and the luciferase signal induced by test samples was expressed as a percentage of the signal in the control. […]

[1] = system: baboon smooth muscle cells; assay: Inhibition of PDGF-BB mitogenic activity on baboon smooth muscle cells ([3H] thymidine incorporation); conditions: for 3H Thymidine (CPM Incorporated), (-) Heparin: no heparin, control 1701
Method: NNC92-0270 was analyzed for the ability to inhibit the mitogenic activity of PDGF on baboon smooth muscle cells. All mitogenesis assays performed on baboon vascular smooth muscle cells (BVSMCs) were done on primary cultures of cells between passages 13 and 20 in culture. The initial cultures were established from outgrowth of aortic tissue explants. Baboon smooth muscle cells were plated at approximately 20,000 cells per well, in DMEM supplemented with 10% fetal calf serum, into 24-well culture dishes. One day prior to use the culture media was removed, and 1 ml of Mito Media (Table 5) was added to each well to allow the cells to become quiescent. At the time of the experiment the cells were stimulated with PDGF-BB. […] 20× stock solutions were made for each of the PDGF concentrations by dilution in 10 mM acetic acid containing 0.25% albumin, and 50 ul PDGF or dilution vehicle alone was added to the culture wells.
To analyze the activity of NNC92-0270 to neutralize PDGF-BB mitogenic activity, 1 ng/ml of PDGF was added to wells along with dilutions of NNC92-0270. The cells were incubated with the test samples for approximately 20 hours at 37 ° C. Fifty microliters of a 20× stock solution of [3H] Thymidine was then added to each well to give a final concentration of 1 μCi/ml. The cells were incubated for 4 hours at 37 ° C., washed with PBS, then harvested with trypsin and counted for [^3 H] thymidine incorporation in a Wallac (Turku, Finland) Betaplate™ liquid scintillation counter.
NNC92-0270 was incubated with 1 ng/ml of PDGF-BB in the presence of 0.5 U/ml of unfractionated heparin. The cells were pulse labeled with [^3 H] thymidine as described above and the level of [^3 H] thymidine determined.

bFGF = assay: SRE-luciferase antagonist assay, induction by bFGF; conditions: Swiss-3T3, SWISS3T3 cells, 5 hours, approximate
Text: as §1, §2

## O=C(NN1CCCCC1)NS(=O)(=O)c1ccc(CCNC(=O)c2[nH]c3ccccc3c2OCc2ccccc2)cc1 [NNC92-0270]
PDGF
  IC50: 13 µM
[1]; 6.2 μM with 1 ng/ml PDGF-BB and 0.5 U/ml heparin
  3H Thymidine (CPM Incorporated), (+) 0.5 U/ml Heparin: 1007 CPM
[1]; 6.2 μM with 1 ng/ml PDGF-BB
  3H Thymidine (CPM Incorporated), (-) Heparin: 1378 CPM
[1]; 12.5 μM with 1 ng/ml PDGF-BB and 0.5 U/ml heparin
  3H Thymidine (CPM Incorporated), (+) 0.5 U/ml Heparin: 586 CPM
[1]; 12.5 μM with 1 ng/ml PDGF-BB
  3H Thymidine (CPM Incorporated), (-) Heparin: 870 CPM
[1]; 25 μM with 1 ng/ml PDGF-BB and 0.5 U/ml heparin
  3H Thymidine (CPM Incorporated), (+) 0.5 U/ml Heparin: 220 CPM
[1]; 25 μM with 1 ng/ml PDGF-BB
  3H Thymidine (CPM Incorporated), (-) Heparin: 334 CPM
[1]; 50 μM with 1 ng/ml PDGF-BB and 0.5 U/ml heparin
  3H Thymidine (CPM Incorporated), (+) 0.5 U/ml Heparin: 211 CPM
[1]; 50 μM with 1 ng/ml PDGF-BB
  3H Thymidine (CPM Incorporated), (-) Heparin: 309 CPM
[1]; 0.5 U/ml unfractionated heparin, 1 ng/ml PDGF-BB
  Effect of adding heparin to the compound on [3H] thymidine incorporation (in words): further inhibition
[1]; Papio anubis, 20 h, read-out: ED50 for the inhibition of PDGF-BB mitogenic activity
  IC50: ~12.5 µM
bFGF
  IC50: > 100 µM
